{"source": "patent US20100112012A1", "about": "“MODULATION OF IMMUNE RESPONSES” (CLEVELAND CLINIC FOUNDATION, priority 2005, published 2010)", "key": {"[1]": {"tested_on": "proinflammatory cytokines in the skin", "test": "IL-1β, TNFα, CCL21 and IκBα expression in sensitized skin (RT-PCR, ELISA)", "format": "in vivo, BALB/c mice", "conditions": "quinacrine on days −2 plus −1, 0.25% DNFB", "method": "Naive and sensitized mouse skin (˜200 mg) was snap frozen in liquid nitrogen and then ground using a mortar and pestle in liquid nitrogen. Total RNA was extracted using the RNeasy Tissue Kit (Qiagen, Inc., Valencia, Calif.) according to the manufacturer's protocol. For synthesis of cDNA, 2 mg of total RNA from each sample was resuspended in 10 ml of the reaction buffer. cDNA synthesis was performed using M-MLV reverse transcriptase (Promega Corporation, Madison, Wis.) with random primers according to the manufacturer's protocol. The reaction was stopped by denaturing the enzyme at 99° C. for 5 min. and the mixture was diluted with distilled water to a final volume of 50 ml. Aliquots (3 ml) of the synthesized cDNA were added to 47 ml of PCR mixture, containing 1×PCR buffer, MgCl2 (1.5 mM), dNTP (0.2 mM each), primer mix (0.5 mM each) and 2.0 units of Taq DNA polymerase (all from Invitrogen Corp., Carlsbad, Calif.). PCR primers for mouse GAPDH, IκBα, TNF-α, IL-1β and CCL21 were purchased from Integrated DNA Technologies, Inc. (Coralville, Iowa) and contained the following sequences:\nAmplification was initiated by 1 min of denaturation at 95° C. for 1 cycle. […] For each set of primers, dilutions of cDNA were amplified for 20-40 cycles to define optimal conditions for linearity and to permit semi-quantitative analysis of signal strength. […]"}, "[2]": {"tested_on": "androgen receptor, N-Myc, CLOCK/Bmal and Smad", "test": "Reporter activity of other transcriptional activators", "format": "cell-based", "conditions": "data not shown"}, "[3]": {"tested_on": "NF-κB", "test": "NF-κB-dependent reporter in H1299-NF-kBLuc cells", "format": "cell-based, human", "conditions": "TNF 10 ng/ml", "method": "(§1) Transient transfections. 2×10^5 cells were plated into 6-well plates and, after overnight incubation, transfected with Lipofectamin Plus reagent (Gibco BRL) with 0.5 μg of reporter plasmids (p21-ConALuc or pNF-κBLuc) in combination with different concentrations of plasmids expressing p53, Arf, Ss-IκB, or siHDM2. Corresponding empty vectors were added in all transfections up to 2 μg of total DNA. Normalization of transfection efficiency was done by adding 0.2 μg of pCMV-LacZ plasmid. Luciferase activity and β-galactosidase activity were measured in lysates prepared 48 hours after transfection with Cell Lysis Buffer (Promega) by the luciferase assay system (Promega) or β-galactosidase enzyme system (Promega). Luminometric and colorimetric reactions were read on the Wallack 1420 plate reader (Perkin Elmer). Stable transduction of reporters. 2×10^4 cells with integrated reporter were plated in 96-well plates. After overnight incubation, chemicals or media from lentivirus-producing cells were added. At different times, cell lysates were prepared using Reporter Lysis Buffer (Promega). Luciferase or β-galactosidase activity and protein concentration were measured in aliquots of cell lysates using standard kits (Promega, Luciferase and β-galactosidase assay systems, Biorad Protein Assay Kit)."}, "[4]": {"tested_on": "p53", "test": "Screening for p53-activating compounds, p53-responsive reporter in RCC45ConALacZ cells", "format": "cell-based, human", "method": "as §1\nThe DiverSet library of 34,000 chemical compounds and focused libraries of structural analogues of selected hits were provided by Chembridge, Calif. Cell lines with p53- or NF-κB-responsive luciferase or β-galactosidase reporters were described previously (5, 7). For screening chemicals, 2×10^4 RCC45ConALacZ cells (RCC45-based p53 reporter cells) were plated per well of 96-well plates in 200 μL of phenol-red-free RPMI medium with standard additions. After overnight incubation, the compounds were added to final concentrations of 5-15 μM (0.2 μL of compound in DMSO per well). […] After 24 h, lysis buffer with ortho-nitrophenyl-β-D-galactopyranoside (ONPG) was added and β-galactosidase activity was estimated colorimetrically by a multiwell plate reader."}, "[5]": {"tested_on": "MHC-mismatched heart grafts", "conditions": "quinacrine on days −2, −1, +5, +14, +16; for survival of heart allografts: A/J donors to C57BL/6", "description": "Heterotopic cardiac transplants were performed using microsurgical techniques. Briefly, donor hearts were harvested and placed in chilled Ringer's solution while the recipient mice were prepared. […] Upon completion of the anastomoses and organ reperfusion, the heart grafts resumed spontaneous contraction. The strength and quality of cardiac graft impulses were monitored each day by palpation of the abdomen. Rejection of cardiac grafts was considered complete by cessation of impulse and was confirmed visually for each graft by laparotomy."}, "[6]": {"tested_on": "histone H2A.X", "test": "Immunofluorescent detection of phosphorylated histone H2A.X", "format": "cell-based, human", "conditions": "HT1080 cells, 10 μM", "text": "All washings were done with blocking solution."}, "[7]": {"tested_on": "ovalbumin-specific IgG", "test": "Ovalbumin immunization, ovalbumin-specific IgG titers by ELISA", "format": "in vivo, BALB/c mice", "conditions": "ovalbumin 100 ug i.p. days 0 and 7; quinacrine 80 mg/kg days 1, 2, 8 and 9; serum day 14"}}, "note": "“Also recorded” adds a separate entry of the source. Like-named read-outs stand apart in the source and are kept apart here."}
{"smiles": "CCN(CC)CCCC(C)Nc1c2ccc(Cl)cc2nc2ccc(OC)cc12", "note": "(stereo not shown) [QC, quinacrine]", "values": [{"measurement": "antigen-induced mRNA expression and protein production of proinflammatory cytokines in the skin", "setting": "[1]", "result": "decreases antigen-induced mRNA expression and protein production of proinflammatory cytokines in the skin"}, {"measurement": "activity of other transcriptional activators (androgen receptor, N-Myc, CLOCK/Bmal and Smad)", "setting": "[2]", "result": "did not change the activity"}, {"measurement": "basal and TNF-induced NF-κB reporter activities", "setting": "[3]; H1299-NF-kB-Luc cells", "result": "strong dose-dependent suppression; also recorded: capable of inhibiting both basal and TNF-induced activities of NF-κB"}, {"measurement": "timing of addition relative to TNF needed to inhibit NF-κB", "setting": "[3]; H1299-NF-κBLuc cells", "result": "can inhibit NF-κB when added before, simultaneously with or after TNF stimulation"}, {"measurement": "activation of the p53-dependent reporter (p53 transactivation) in RCC", "setting": "[4]", "result": "effective inducer of p53 transactivation in RCC"}, {"measurement": "survival of heart allografts", "setting": "[5]; listed as Quinacrine", "result": "extended the survival of all grafts"}, {"measurement": "survival of heart allografts", "setting": "[5]; listed as quinacrine", "result": "significant prolongation of allograft survival"}, {"measurement": "rejection of heart allografts", "setting": "[5]; groups of 5", "result": "absence of rejection in one of the allografts"}, {"measurement": "phosphorylation of histone H2A.X", "setting": "[6]", "result": "Neither 9AA nor QC induced phosphorylation of histone H2A.X"}, {"measurement": "increase of antigen-specific titers of IgG", "setting": "[7]", "result": 4, "unit": "fold"}]}
